# Experimental data as given in US4581354A, “3-arylcarbonyl- and 3-cycloalkylcarbonyl-1-aminoalkyl-1H-indoles, compositions and use” (Sterling Drug Inc., priority 1985, dated 1986).
# Structures can show the parent of a compound that is named as a salt. Where two headings read alike, the source gives them in different places.
# Tests used:
# bradykinin = assay: anti-bradykinin test (BRDK); assay type: in vivo; conditions: for inhibition in vivo at 200 mg/kg: 200 mg./kg. oral; for inhibition in vivo at 200 mg/kg / inhibition in vivo at 300 mg/kg / inhibition in vivo at 100 mg/kg / inhibition in vivo at 30 mg/kg: read-out: BRDK percent inhibition; for inhibition in vivo at 300 mg/kg: 300 mg./kg. oral; for ED50: po; for inhibition in vivo at 30 mg/kg: 30 mg./kg. oral
# Description: (§1) The test procedures used to determine the analgesic activities of the compounds have been described in detail in the prior art and are as follows: The acetylcholine-induced abdominal constriction test, which is a primary analgesic screening test designed to measure the ability of a test agent to suppress acetylcholine-induced abdominal constriction in mice, described by Collier et al., Brit. J. Pharmacol. Chemotherap. 32, 295 (1968); a modification of the anti-bradykinin test, which is also a primary analgesic screening procedure, described by Berkowitz et al., J. Pharmacol. Exptl. Therap. 177, 500-508 (1971), Blane et al., J. Pharm. Pharmacol. 19, 367-373 (1967), Botha et al., Eur. J. Pharmacol. 6, 312-321 (1969) and Deffenu et al., J. Pharm. Pharmacol. 18, 135 (1966); and the rat paw flexion test, described by Kuzuna et al., Chem. Pharm. Bull., 23, 1184-1191 (1975), Winter et al., J. Pharm. Exptl. Therap., 211, 678-685 (1979) and Capetola et al., J. Pharm. Exptl. Therap. 214, 16-23 (1980).
# (§2) Unless noted otherwise, all data were obtained on oral administration and are expressed either as the ED50 or as the percent inhibition at a given dose level (thus 30/100 or 30% inhibition at […].)
# (§3) In some instances, the compounds were retested two or more times, and ED50 values were calculated for each series of repeat tests. In such instances, each of the ED50 values so-obtained is given in a series of values, thus 6, 28, 30, 43 in the case of the species of Example 1AW in the acetylcholine-induced abdominal constriction test.
# rat paw flexion = rat paw flexion test (P.F.); assay type: in vivo; conditions: for inhibition in vivo at 30 mg/kg: 30 mg./kg. oral; for inhibition in vivo at 100 mg/kg: 100 mg./kg. oral; for ED50: oral; for inhibition in vivo at 10 mg/kg: 10 mg./kg. oral; for inhibition in vivo at 300 mg/kg: 300 mg./kg. oral
# Description: as §1, §2, §3
# [1] = test system: acetylcholine-induced abdominal constriction; assay: animal or person; assay type: in vivo, mice; conditions: Mus musculus; for inhibition in vivo at 3 mg/kg: 3 mg./kg. i.v.; for inhibition in vivo at 10 mg/kg: 10 mg./kg. i.v.; for ED50: read-out: Ach ED50; for inhibition in vivo at 1 mg/kg: 1 mg./kg. i.v.
# [2] = po, read-out: P.F. percent inhibition
# [3] = iv, read-out: Ach percent inhibition
structure (smiles),measurement,setting,value
CCc1ccc(C(=O)c2c(C)n(CCN3CCOCC3)c3ccccc23)cc1 [Example 1AC],inhibition in vivo at 200 mg/kg,bradykinin,0%
same,inhibition in vivo at 30 mg/kg,rat paw flexion; [2],43%
same,inhibition in vivo at 50 mg/kg,"rat paw flexion; po, 50 mg./kg. oral, read-out: P.F. percent inhibition",57%
same,inhibition in vivo at 100 mg/kg,rat paw flexion; [2],75%
same,inhibition in vivo at 1.77 mg/kg,"[1]; iv, 1.77 mg./kg. i.v., read-out: Ach percent inhibition",10%
same,inhibition in vivo at 2.2 mg/kg,"[1]; iv, 2.2 mg./kg. i.v., read-out: Ach percent inhibition",10%
same,inhibition in vivo at 3 mg/kg,[1]; [3],80%
same,inhibition in vivo at 10 mg/kg,[1]; [3],100%
same,ED50,[1]; po,30 mg/kg
Cc1ccc(C(=O)c2c(C)n(CCN3CCOCC3)c3ccccc23)cc1 [Example 1AE],inhibition in vivo at 300 mg/kg,bradykinin,20%
same,ED50,rat paw flexion,66.2 mg/kg
same,ED50,[1]; po,29 mg/kg
Cc1c(C(=O)c2ccccc2)c2ccccc2n1CCN1CCOCC1 [Example 1AO],ED50,bradykinin,111 mg/kg
same,inhibition in vivo at 100 mg/kg,rat paw flexion; [2],75%
same,ED50,[1]; po,28 mg/kg
Cc1c(C(=O)c2ccc(Cl)cc2)c2ccccc2n1CCN1CCOCC1 [Example 1AQ],inhibition in vivo at 10 mg/kg,rat paw flexion; [2],0%
same,inhibition in vivo at 30 mg/kg,rat paw flexion; [2],12%
same,inhibition in vivo at 100 mg/kg,rat paw flexion; [2],12%
same,ED50,[1]; iv,17 mg/kg
same,inhibition in vivo at 300 mg/kg,"[1]; po, 300 mg./kg. oral, read-out: Ach percent inhibition",53%
Cc1c(C(=O)c2ccccc2)c2ccccc2n1C(C)CN1CCOCC1 (centres unmarked) [Example 1AW],ED50,bradykinin,229 mg/kg
same,ED50,rat paw flexion,26 mg/kg
CC(CN1CCOCC1)n1cc(C(=O)c2ccccc2)c2ccccc21 (centres unmarked) [Example 1AY],ED50,bradykinin,141 mg/kg
same,inhibition in vivo at 30 mg/kg,rat paw flexion; [2],0%
same,inhibition in vivo at 100 mg/kg,rat paw flexion; [2],0%
same,inhibition in vivo at 300 mg/kg,rat paw flexion; [2],20%
same,ED50,[1]; iv,8.5 mg/kg
CSc1ccc(C(=O)c2c(C)n(CCN3CCOCC3)c3ccccc23)cc1 [Example 1D],inhibition in vivo at 100 mg/kg,bradykinin; 100 mg./kg. oral,0%
same,ED50,rat paw flexion,64 mg/kg
same,ED50,[1]; iv,5.1 mg/kg
same,ED50,[1]; sc,49 mg/kg
Cc1c(C(=O)c2ccc([S+](C)[O-])cc2)c2ccccc2n1CCN1CCOCC1 (centres unmarked) [Example 1F],inhibition in vivo at 200 mg/kg,bradykinin,0%
same,inhibition in vivo at 100 mg/kg,rat paw flexion; [2],88%
same,ED50,[1]; iv,13 mg/kg
same,ED50,[1]; po,20 mg/kg
Cc1c(C(=O)c2cc3ccccc3o2)c2ccccc2n1CCN1CCOCC1 [Example 1S],ED50,bradykinin,162 mg/kg
same,inhibition in vivo at 1 mg/kg,[1]; [3],10%
same,inhibition in vivo at 3 mg/kg,[1]; [3],20%
same,inhibition in vivo at 10 mg/kg,[1]; [3],100%
same,ED50,[1]; po,40 mg/kg
Cc1c(C(=O)c2ccccc2F)c2ccccc2n1C(C)CN1CCOCC1 (centres unmarked) [Example 2C],inhibition in vivo at 30 mg/kg,bradykinin,0%
same,inhibition in vivo at 300 mg/kg,bradykinin,60%
same,ED50,[1]; iv,3.3 mg/kg
same,ED50,[1]; po,19 mg/kg
COc1ccc(C(=O)c2c(C)n(C(C)CN3CCOCC3)c3ccccc23)cc1 (centres unmarked) [Example 2I],ED50,bradykinin,132 mg/kg
same,inhibition in vivo at 100 mg/kg,rat paw flexion; [2],62%
same,ED50,[1]; iv,2.6 mg/kg
same,ED50,[1]; po,28 mg/kg
same,ED50,[1]; sc,18 mg/kg
"COc1ccc(C(=O)c2c(C)n(CCN3CCCC(O)C3)c3ccccc23)cc1 (centres unmarked) [Example 3B, 1-[2-(3-hydroxy-1-piperidinyl)ethyl]-2-methyl-3-(4-methoxybenzoyl)-1H-indole]",inhibition in vivo at 30 mg/kg,rat paw flexion; [2],50%
same,inhibition in vivo at 100 mg/kg,rat paw flexion; [2],86%
same,inhibition in vivo at 300 mg/kg,rat paw flexion; [2],86%
same,ED50,[1]; iv,3 mg/kg
same,ED50,[1]; po,26.5 mg/kg
same,ED50,[1]; sc,10 mg/kg
"Cc1c(C(=O)c2cccc(N)c2)c2ccccc2n1CCN1CCOCC1 [Example 4A, 2-methyl-3-(3-aminobenzoyl)-1-[2-(4-morpholinyl)ethyl]-1H-indole]",ED50,bradykinin,53 mg/kg
same,ED50,[1]; po,16 mg/kg
"Cc1c(C(=O)c2ccc(N)cc2)c2ccccc2n1CCN1CCOCC1 [Example 4B, 2-methyl-3-(4-aminobenzoyl)-1-[2-(4-morpholinyl)ethyl]-1H-indole]",ED50,bradykinin,38 mg/kg
same,ED50,rat paw flexion,27.6 mg/kg
same,ED50,[1]; iv,6 mg/kg
same,ED50,[1]; po,24 mg/kg
"CC(=O)Nc1ccc(C(=O)c2c(C)n(CCN3CCOCC3)c3ccccc23)cc1 [Example 5A, 2-methyl-3-(4-acetylaminobenzoyl)-1-[2-(4-morpholinyl)ethyl]-1H-indole]",inhibition in vivo at 300 mg/kg,bradykinin,0%
same,inhibition in vivo at 1 mg/kg,[1]; [3],20%
same,inhibition in vivo at 3 mg/kg,[1]; [3],29%
same,inhibition in vivo at 10 mg/kg,[1]; [3],30%
same,ED50,[1]; po,31 mg/kg
CC(=O)Nc1cccc(C(=O)c2c(C)n(CCN3CCOCC3)c3ccccc23)c1 [Example 5B],ED50,bradykinin,61 mg/kg
same,inhibition in vivo at 10 mg/kg,rat paw flexion; [2],0%
same,inhibition in vivo at 30 mg/kg,rat paw flexion; [2],12%
same,inhibition in vivo at 100 mg/kg,rat paw flexion; [2],12%
same,ED50,[1]; po,25 mg/kg
"Cc1c(C(=O)c2ccc(NC(=O)C(F)(F)F)cc2)c2ccccc2n1CCN1CCOCC1 [Example 5C, 2-methyl-3-[4-(N-trifluoroacetylamino)benzoyl]-1-[2-(4-morpholinyl)ethyl]-1H-indole]",inhibition in vivo at 30 mg/kg,bradykinin,20%
same,inhibition in vivo at 100 mg/kg,bradykinin; 100 mg./kg. oral,60%
same,inhibition in vivo at 300 mg/kg,bradykinin,60%
same,ED50,[1]; po,19 mg/kg
Cc1c(C(=O)c2ccc(NC(=O)c3ccccc3)cc2)c2ccccc2n1CCN1CCOCC1 [Example 5D],inhibition in vivo at 200 mg/kg,bradykinin,20%
same,inhibition in vivo at 3 mg/kg,[1]; [3],57%
same,ED50,[1]; iv,29.1 mg/kg
same,ED50,[1]; po,84 mg/kg
"Cc1c(C(=O)c2ccc(O)cc2)c2ccccc2n1CCN1CCOCC1.Cl [Example 6, 2-methyl-3-(4-hydroxybenzoyl)-1-[2-(4-morpholinyl)ethyl]-1H-indole hydrochloride]",inhibition in vivo at 100 mg/kg,bradykinin; 100 mg./kg. oral,0%
same,inhibition in vivo at 300 mg/kg,bradykinin,0%
same,inhibition in vivo at 10 mg/kg,[1]; [3],0%
same,inhibition in vivo at 30 mg/kg,"[1]; iv, 30 mg./kg. i.v., read-out: Ach percent inhibition",0%
same,ED50,[1]; po,83 mg/kg
same,inhibition in vivo at 30 mg/kg,"[1]; sc, 30 mg./kg. s.c., read-out: Ach percent inhibition",13%
"Cc1c(C(=O)c2ccc(CN)cc2)c2ccccc2n1CCN1CCOCC1.Cl.Cl [Example 7, 2-methyl-3-(4-aminomethylbenzoyl)-1-[2-(4-morpholinyl)ethyl]-1H-indole dihydrochloride]",inhibition in vivo at 300 mg/kg,bradykinin,0%
same,ED50,[1]; po,40 mg/kg
"CNc1ccc(C(=O)c2c(C)n(CCN3CCOCC3)c3ccccc23)cc1 [Example 8A, 2-methyl-3-(4-methylaminobenzoyl)-1-[2-(4-morpholinyl)-ethyl]-1H-indole dihydrochloride hemihydrate]",inhibition in vivo at 30 mg/kg,rat paw flexion; [2],62%
same,ED50,[1]; po,32 mg/kg
"Cc1c(C(=O)c2ccc(CNC(=N)N)cc2)c2ccccc2n1CCN1CCOCC1 [Example 17, 2-methyl-3-(4-guanidinylmethylbenzoyl)-1-[2-(4-morpholinyl)ethyl]-1H-indole sulfate (2:1)]",inhibition in vivo at 100 mg/kg,"bradykinin; sc, 100 mg./kg. s.c.",33%
same,inhibition in vivo at 30 mg/kg,"[1]; po, 30 mg./kg. oral, read-out: Ach percent inhibition",7%
same,ED50,[1]; sc,6.6 mg/kg
